Results taken from US7875638B2, “Synthesis of epothilones, intermediates thereto, analogues and uses thereof” (Sloan-Kettering Institute for Cancer Research, priority 2002, dated 2011).

How the values were obtained:
[1] = test system: human colon carcinoma HCT-116 xenograft; assay: HCT-116 xenograft in nude mice; conditions: for Tumor relapse during follow-up to D200: Fludelone 20 and 30 mg/kg; for Tumor free following the cessation of treatment: mouse, in vivo
[2] = test system: paclitaxel resistant human lung carcinoma A549/Taxol xenograft; conditions: 20 mg/kg, Q2Dx7, 6 hr-i.v. infusion; cited from earlier work

## C/C(=C\c1csc(C)n1)[C@@H]1C/C=C(/C(F)(F)F)C/C=C/[C@H](C)[C@H](O)[C@@H](C)C(=O)C(C)(C)[C@@H](O)CC(=O)O1 [Compound 29, 26-trifluoro-trans-9,10-dehydro-12,13-desoxyepothilone B]
[1]; 30 mg/kg, end of the 2nd cycle (D29)
  Maximal body weight loss without lethality: 30%
[1]; Taxol 20 mg/kg
  Tumor relapse during follow-up to D200: no tumor relapse
[1]; Taxol 20 mg/kg, listed as F3-deH-dEpoB
  Tumor relapse during follow-up to D200: no tumor relapse in 4 out of 4 mice on D200
[1]; Q2Dx4, 6 hr-i.v. infusion for 3 cycles, F3-deH-dEpoB 20 and 30 mg/kg, Taxol 20 mg/kg
  Tumor disappearance (mice): 4 out of 4
[1]; listed as 26-trifluoro-9,10-trans-dehdyro-epothilone D
  Tumor free following the cessation of treatment: over 5.2 months
[1]; listed as Fludelone
  Tumor free following the cessation of treatment: over 5.3 months
[2]
  Effect on A549/Taxol xenograft (recent report): complete tumor growth suppression but failed to achieve tumor disappearance
